Test results as given in ChEMBL document CHEMBL5230096, “A comprehensive insight on the recent development of Cyclic Dependent Kinase inhibitors as anticancer agents” (Eur J Med Chem, 2020).

Key:
HCT-116 = assay: Anticancer activity against human HCT-116 cells assessed as reduction in cell viability incubated for 48 hrs by MTT assay; assay type: functional, cell-based; details: HCT-116, 48 h
MCF7 [1] = assay: Anticancer activity against human MCF7 cells assessed as reduction in cell viability incubated for 48 hrs by MTT assay; assay type: functional, cell-based; details: MCF7, 48 h
[2] = molecular target: Cyclin-dependent kinase 2/cyclin E1 (Homo sapiens, UniProt P24941); assay: Inhibition of CDK2/cyclin E1 (unknown origin) expressed in Sf9 cells using histone H1 as substrate in presence of ATP by microplate reader analysis
K562 = assay: Antiproliferative activity against human K562 cells assessed as reduction in cell proliferation incubated for 3 days by calcein AM staining based fluorescent analysis; assay type: functional; details: K562, 72 h
MCF7 [3] = assay: Antiproliferative activity against human MCF7 cells assessed as reduction in cell proliferation incubated for 3 days by calcein AM staining based fluorescent analysis; assay type: functional; details: MCF7, 72 h
[4] = test system: Panel NCI-60 (60 carcinoma cell lines); assay: Antiproliferative activity against human Panel NCI-60 (60 carcinoma cell lines) cells assessed as inhibition of cell growth at 0.00001 M incubated for 48 hrs by sulforhodamine B assay; assay type: functional; set-up: scale not given: the % may be the effect or the level left; details: dose 10 µM
CDK2/Cyclin A2 [5] = molecular target: T1, CDK2/Cyclin A2 (Homo sapiens, UniProt P24941); assay: Inhibition of CDK2/Cyclin A2 (unknown origin) incubated for 40 mins in presence of ATP by Kinase-Glo Plus luminescence kinase assay; assay type: protein-complex assay
[6] = molecular target: T2, CDK2/Cyclin A2 (Homo sapiens) (UniProt P24941+P20248); assay: Inhibition of CDK2/Cyclin A2 (unknown origin) at 10 uM incubated for 40 mins in presence of ATP by Kinase-Glo Plus luminescence kinase assay; assay type: protein-complex assay
[7] = test system: Panel NCI-60 (60 carcinoma cell lines); assay: Antiproliferative activity against human Panel NCI-60 (60 carcinoma cell lines) assessed as reduction in cell viability at 10 uM; assay type: functional
CDK2/Cyclin A2 [8] = molecular target: T1, CDK2/Cyclin A2; assay: Inhibition of CDK2/cyclin A2 (unknown origin) using histone as substrate in presence of ATP by luminescent ADP detection assay; assay type: protein-complex assay
[9] = molecular target: T3, Cyclin-dependent kinase 2 (Homo sapiens, UniProt P24941)
Description: Inhibition of CDK2 (unknown origin)

[10] = molecular target: Cyclin-dependent kinase 2/cyclin E (Homo sapiens, UniProt P24941); assay: Inhibition of CDK2/Cyclin E (unknown origin) expressed in baculovirus infected Sf9 cells using histone H1 as substrate in presence of gamma32P-ATP by scintillation counter analysis
CDK9/cyclin T1 = CDK9/cyclin T1 (Homo sapiens, UniProt P50750); assay: Inhibition of CDK9/cyclin T1 (unknown origin) assessed as inhibition constant; assay type: protein-complex assay
[11] = molecular target: Cyclin-dependent kinase 1 (Homo sapiens, UniProt P06493); assay: Inhibition of CDK1 (unknown origin) assessed as inhibition constant
MCF7 [12] = assay: Cytotoxicity against human MCF7 cells assessed as reduction in cell viability by MTT assay; assay type: functional, cell-based
[13] = test system: Human immunodeficiency virus 1; assay: Antiviral activity against HIV1; assay type: functional, organism-based
MCF7 [14] = assay: Antiproliferative activity against human MCF7 cells assessed as reduction in cell proliferation incubated for 48 hrs by Sulfo-Rhodamine-B stain (SRB) assay; assay type: functional, cell-based; details: MCF7, 48 h
[15] = molecular target: T3, Cyclin-dependent kinase 2; assay: Inhibition of human CDK2 using TMB as substrate preincubated for 210 mins followed by substrate addition and measured after 15 to 25 mins by spectrophotometric analysis
MCF7 [16] = assay: Antiproliferative activity against human MCF7 cells assessed as reduction in cell viability by MTT assay; assay type: functional, cell-based
[17] = molecular target: T2, CDK2/Cyclin A2 (Homo sapiens); assay: Inhibition of CDK2/Cyclin A2 (unknown origin) at 10 uM by Kinase-Glo Plus luminescence kinase assay; assay type: protein-complex assay
HeLa = assay: Antiproliferative activity against human Hela cells assessed as reduction in cell viability by MTT assay; assay type: functional, cell-based
B16-F10 = assay: Antiproliferative activity against mouse B16-F10 cells assessed reduction in cell proliferation; assay type: functional, cell-based
MCF7 [18] = assay: Antiproliferative activity against human MCF7 cells assessed reduction in cell proliferation; assay type: functional, cell-based
Histone deacetylase = assay: Inhibition of HDAC (unknown origin); assay type: protein assay, Homo sapiens

Chain of CDK9/cyclin T1 (O60563 whole entry): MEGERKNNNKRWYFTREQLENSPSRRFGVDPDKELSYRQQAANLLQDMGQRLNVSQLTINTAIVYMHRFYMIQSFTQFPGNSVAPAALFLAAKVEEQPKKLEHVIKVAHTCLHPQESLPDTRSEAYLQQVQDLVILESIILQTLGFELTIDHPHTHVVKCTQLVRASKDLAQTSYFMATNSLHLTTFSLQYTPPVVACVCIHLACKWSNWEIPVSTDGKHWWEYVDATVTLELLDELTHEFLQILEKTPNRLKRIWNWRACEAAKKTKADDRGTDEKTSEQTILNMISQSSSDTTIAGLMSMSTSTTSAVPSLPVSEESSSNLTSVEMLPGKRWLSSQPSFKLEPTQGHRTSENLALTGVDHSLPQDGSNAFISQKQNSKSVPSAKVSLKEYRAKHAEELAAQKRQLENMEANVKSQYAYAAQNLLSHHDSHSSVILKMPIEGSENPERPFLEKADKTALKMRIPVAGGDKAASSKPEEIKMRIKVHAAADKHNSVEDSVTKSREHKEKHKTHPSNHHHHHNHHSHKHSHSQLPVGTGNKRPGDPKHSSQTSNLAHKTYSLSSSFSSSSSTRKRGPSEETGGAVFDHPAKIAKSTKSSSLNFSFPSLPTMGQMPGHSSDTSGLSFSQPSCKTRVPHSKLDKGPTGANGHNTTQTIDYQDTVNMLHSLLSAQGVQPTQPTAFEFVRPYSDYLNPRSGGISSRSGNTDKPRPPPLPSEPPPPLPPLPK
Chain of CDK9/cyclin T1 (P50750 whole entry): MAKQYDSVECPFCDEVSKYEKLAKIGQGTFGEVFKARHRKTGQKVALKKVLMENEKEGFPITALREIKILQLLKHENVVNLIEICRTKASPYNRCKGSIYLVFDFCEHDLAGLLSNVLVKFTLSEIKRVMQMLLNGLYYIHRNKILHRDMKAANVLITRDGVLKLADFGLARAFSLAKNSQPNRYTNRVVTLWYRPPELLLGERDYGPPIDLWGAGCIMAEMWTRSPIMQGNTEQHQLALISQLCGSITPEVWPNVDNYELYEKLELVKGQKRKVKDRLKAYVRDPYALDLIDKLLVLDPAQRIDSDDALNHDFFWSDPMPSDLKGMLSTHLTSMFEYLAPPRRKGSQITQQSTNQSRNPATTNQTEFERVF
Chain of Cyclin-dependent kinase 1 (P06493 whole entry): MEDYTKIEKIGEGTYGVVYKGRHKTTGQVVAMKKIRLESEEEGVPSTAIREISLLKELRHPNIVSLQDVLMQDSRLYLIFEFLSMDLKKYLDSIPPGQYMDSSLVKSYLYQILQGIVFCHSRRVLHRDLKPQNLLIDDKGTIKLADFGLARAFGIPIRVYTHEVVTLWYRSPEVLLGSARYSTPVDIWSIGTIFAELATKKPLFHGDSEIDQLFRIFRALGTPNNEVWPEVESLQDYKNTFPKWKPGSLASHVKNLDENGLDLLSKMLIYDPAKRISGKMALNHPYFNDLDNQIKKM

## CC(=O)C(=NNc1ccc(-c2nc3ncccc3[nH]2)cc1)C(C)=O
HCT-116
  IC50: 1690 nM
MCF7 [1]
  IC50: 2110 nM

## CCCCCSc1nc(Nc2ccccc2Cl)c2cn[nH]c2n1
[2]
  IC50: 5.1 µM
K562
  IC50: 19.9 µM
MCF7 [3]
  IC50: 19.2 µM

## Cc1ccc(-n2cc(-c3ccccc3)c3c(SCC(=O)N/N=C\c4ccccc4[N+](=O)[O-])ncnc32)cc1
[4]
  Activity: <50%

## O=C(NCCc1ccccc1)c1cnn2c(-c3ccc(Cl)cc3)nc(NCCc3ccccc3)nc12
CDK2/Cyclin A2 [5]
  IC50: 1850 nM
[6]
  inhibition: 82%
[7]
  inhibition at 10 µM: 33.3%

## COc1ccc(NC(=O)c2cnn(-c3cc(NCc4ccccc4)ncn3)c2)cc1
CDK2/Cyclin A2 [8]
  IC50: < 20 nM

## Nc1ccc(-c2nc3ncccc3[nH]2)cc1
HCT-116
  IC50: 3060 nM
MCF7 [1]
  IC50: 710 nM

## O=C1CC(=O)N(c2ccc(F)cc2)C(=S)N1C(=O)c1ccccc1
[9]
  IC50: 4.5 µM

## O=c1[nH]cc(-c2ccc(O)cc2)c2nccn12
[10]
  IC50: 1.3 µM

## C/C(=N\N=C\c1ccccc1)c1c(O)c2ccccc2oc1=O
CDK9/cyclin T1
  Ki: 3.26 nM

## CC(=O)N1N=C(c2c(O)c3ccccc3oc2=O)CC1c1ccccc1Cl (centres undefined)
[11]
  Ki: 0.35 nM

## O=C(CCn1cc(COC(=O)c2c[nH]c3ccccc23)nn1)NC(CC(=O)c1cc2ccccc2oc1=O)c1ccccc1Cl (centres undefined)
MCF7 [12]
  IC50: 17.5 µM

## O=C(c1ccccc1)N1C(=O)C(C2C(=O)N(C(=O)c3ccccc3)C(=S)N(c3ccc(F)cc3)C2=O)C(=O)N(c2ccc(F)cc2)C1=S (centres undefined)
[13]
  IC50: 2.7 µM
[9]
  IC50: 5.2 µM

## CCCCCSc1nc(OC(=O)c2ccco2)c2cn[nH]c2n1
[2]
  IC50: 21.2 µM
K562
  IC50: 19.8 µM
MCF7 [3]
  IC50: 18.9 µM

## Cc1ccc(S(=O)(=O)Nc2ccc(-c3ccnc(Nc4ccc(S(=O)(=O)Nc5nccc(C)n5)cc4)c3C#N)cc2)cc1
MCF7 [14]
  IC50: 18.3 µM
[15]
  IC50: 1790 nM

## O=C1NN=C(Nc2ccccc2)/C1=C/Nc1ccc(O)cc1
MCF7 [16]
  IC50: 23.3 µM
[17]
  inhibition: 60%

## CC(=O)N1C(=O)C(C(=O)c2ccc(F)cc2)C(=O)N(c2ccc(S(=O)(=O)Nc3nccs3)cc2)C1=S (centres undefined)
[13]
  IC50: 3.2 µM

## O=C(Nc1ccc(O)cc1)c1cnn(-c2cc(NCc3ccccc3)ncn2)c1
CDK2/Cyclin A2 [8]
  IC50: < 20 nM

## CCOC(=O)C1=C(Cn2cc(COc3ccccc3C3NC(=O)NC(CCl)=C3C(=O)OCC)nn2)NC(=O)NC1c1ccccc1F (centres undefined)
HeLa
  IC50: 18 µM

## Nc1ccc(/N=N/c2ccc(-c3nc4ncccc4[nH]3)cc2)cc1
HCT-116
  IC50: 1830 nM
MCF7 [1]
  IC50: 2840 nM

## O=C(CCCn1cc(CNC2CC2)c(-c2ccccc2)n1)NO
B16-F10
  IC50: 2530 nM
MCF7 [18]
  IC50: 2960 nM
Histone deacetylase
  IC50: 2.76 µM
[9]
  IC50: 3.7 µM

## O=c1[nH]cc(-c2cccc(F)c2F)c2nccn12
[10]
  IC50: 4.8 µM

## NS(=O)(=O)c1ccc(S(=O)(=O)Nc2cccc3c(Cl)c[nH]c23)cc1
MCF7 [14]
  IC50: 36.3 µM

## CN1CCN(C(=O)c2cnn(-c3cc(NCc4ccccc4)ncn3)c2)CC1
CDK2/Cyclin A2 [8]
  IC50: < 20 nM

## CN(C)c1ccc(-c2cc(-c3c(O)c4ccccc4oc3=O)nc(N)c2C#N)cc1
CDK9/cyclin T1
  Ki: 3.26 nM

## COc1ccccc1/C=C/C(=C(C#N)C#N)c1ccc(NS(=O)(=O)c2ccc(C)cc2)cc1
MCF7 [14]
  IC50: 26.3 µM
[15]
  IC50: 2920 nM

## Cc1ccc(-n2cc(-c3ccccc3)c3c(SCC(=O)N/N=C\c4ccc(N(C)C)cc4)ncnc32)cc1
[4]
  Activity: <50%

## CCOC(=O)C1=C(Cn2cc(COc3ccccc3C3NC(=O)NC(CCl)=C3C(=O)OCC)nn2)NC(=O)NC1c1ccc([N+](=O)[O-])cc1 (centres undefined)
HeLa
  IC50: 18 µM

## O=C1CC(=O)N(c2ccc(S(=O)(=O)Nc3nccs3)cc2)C(=S)N1C(=O)c1ccccc1
[13]
  IC50: 4.5 µM
